Experiment [1] deals with hypotension induced by PAF. As to the kind of experiment: Inhibition of the hypotensive effect induced by PAF in normotense rats. Format: in vivo, Sprage Dawley rats. Conditions: anesthetized male rats; compound given through the femoral vein 3 min before PAF (0.5 mcg/Kg, i.v.); average arterial pressure. The method, then: Inhibition of the hypotensive effect induced by PAF in normotense rats.
Male Sprage Dawley rats, of 180-220 g of weight, anesthetized with sodium pentobarbital (50 mg/Kg, i.p. 1 mL/100 g) have been used. In order to measure the average arterial pressure, a polyethylene catheter is introduced into the carotid artery. The arterial pressure is recorded with the help of a transducer connected with a R611 Beckman polygraph. The tested compounds are administered through the femoral vein 3 min before the injection of PAF (0.5 mcg/Kg, i.v.).

The test system of experiment [2] is platelet aggregation induced by PAF. As to the kind of experiment: Inhibition of platelet aggregation induced by PAF (rabbit platelet rich plasma, Born nephelometric technique). Type of experiment: cell-based, New Zealand albino rabbits. Conditions: Oryctolagus cuniculus, concentration needed to inhibit platelet aggregation by 50%, PAF (C₁₈) 16 nM final, read-out: IC₅₀. The method, then:
Inhibition of platelet aggregation induced by PAF.
The blood is obtained by cardiac puncture of male New Zealand albino rabbits (between 2 and 2.5 Kg of weight) and coagulation is prevented by adding 1 part of 3.16% sodium citrate dihydrate in 9 parts of blood. The platelet rich plasma (PRP) is prepared by blood centrifugation at 250xg for 10 min. at 4°C and it is diluted with platelet poor plasma (PPP) by additional centrifugation at 3000xg for 10 min. The amount of platelets is adjusted to […]. The platelet aggregation induced by PAF (C₁₈; prepared in our laboratory) (16 nM, final) is determined by the Born nephelometric technique (J. Physiol., 1962, 162, 67) using a aggregometer Chrono-log 500. The activities of the inhibitors are expressed as IC₅₀, that is to say the concentration of the drug needed to inhibit the platelet aggregation by 50%.

pIC50: −log10 of the molar value.

We go through six compounds from patent EP0388950A2, “New 1,3-dioxolan-4-yl derivatives of 2-picolylamine” (J. URIACH & CIA. S.A., priority 1989, dated 1990).

For the compound `CCCCCCCCCCCCCCCCCCOCC1OCC(COC(=O)N(Cc2cccc[n+]2C)C(C)=O)O1.[I-]` (stereo not drawn) [Compound 10, 2-(N-Acetyl-N-(((2-octadecyloxymethyl-1,3-dioxolan-4-yl)methoxy)carbonyl)aminomethyl)-1-methylpyridinium iodide], the CI₅₀ in experiment [1] is given as 0.35 mg/Kg,i.v. Also, the pIC50 in experiment [2] is 5.92.

With `CCCCCCCCCCCCCCCCCC1OCC(COC(=O)N(Cc2cccc[n+]2CC)C(C)=O)O1.[I-]` (stereo not drawn) [Compound 4, 2-(N-acetyl-N-(((2-heptadecyl-1,3-dioxolane-4-yl)methoxy)carbonyl)aminomethyl)-1-ethylpyridinium iodide], the CI₅₀ in experiment [1] was 0.2 mg/Kg,i.v. Further, in experiment [2], the pIC50 is 6.68.

Regarding `CCCCCCCCCCCCCCCCCC1OCC(COC(=O)N(Cc2cccc[n+]2C)C(C)=O)O1.[I-]` (stereo not drawn) [Compound 3, 2-(N-Acetyl-N-(((2-heptadecyl-1,3-dioxolane-4-yl)methoxy)carbonyl)aminomethyl)-1-methylpyridinium iodide], the CI₅₀ in experiment [1] is on record as 0.9 mg/Kg,i.v. Moreover, in experiment [2], the pIC50 is 5.66.

With `CCCCCCCCCCCCCCCNC(=O)OCC1OCC(COC(=O)N(Cc2cccc[n+]2CC)C(C)=O)O1.[I-]` (stereo not drawn) [Compound 14, 2(N-Acetyl-N-(((2-pentadecylcarbamoyloxymethyl-1,3-dioxolan-4-yl)methoxy)carbonyl)aminomethyl)-1-ethylpyridinium iodide], the CI₅₀ in experiment [1] is <0.1 mg/Kg,i.v. Besides, the pIC50 in experiment [2] was above 7.00.

Regarding `CCCCCCCCCCCCCCCCOCC1OCC(COC(=O)N(Cc2cccc[n+]2CC)C(C)=O)O1.[I-]` (stereo not drawn) [Compound 7, 2-(N-Acetyl-N-(((2-hexadecyloxymethyl-1,3-dioxolan-4-yl)methoxy)carbonyl)aminomethyl)-1-ethylpyridinium iodide], in experiment [1], the CI₅₀ is listed as <0.1 mg/Kg,i.v. In experiment [2], the pIC50 was above 7.00.

For the compound `CCCCCCCCCCCCCCCCCCOCC1OCC(COC(=O)N(Cc2cccc[n+]2CC)C(C)=O)O1.[I-]` (stereo not drawn) [Compound 11, 2(N-Acetyl-N-(((2-octadecyloxymethyl-1,3-dioxolan-4-yl)methoxy)carbonyl)aminomethyl)-1-ethylpyridinium iodide], the CI₅₀ in experiment [1] is reported as <0.1 mg/Kg,i.v. The pIC50 in experiment [2] was 6.80.
